Experimental data: ChEMBL document CHEMBL1141810, “Excavatolides F-M, new briarane diterpenes from the gorgonian Briareum excavatum” (1999)
≈ marks a conversion by molar mass, not a printed value.

What was measured:
Format in all cases: functional
Conditions in all cases: read-out: ED50 (the source's name)
[1] = system: P388; test: Cytotoxicity against mouse P388 cells by MTT assay
[2] = system: KB; test: Cytotoxicity against human KB cells by MTT assay
[3] = system: A549; test: Cytotoxicity against human A549 cells by MTT assay
[4] = system: HT-29; test: Cytotoxicity against human HT-29 cells by MTT assay

| SMILES | EC50 [1] | EC50 [2] | EC50 [3] | EC50 [4] |
| --- | --- | --- | --- | --- |
| CCCC(=O)O[C@H]1C[C@H](OC(C)=O)[C@@]2(C)[C@H]([C@H]1C)[C@@H](OC(C)=O)[C@]13O[C@@]1(C)C(=O)O[C@H]3/C=C(C)\C=C\[C@@H]2OC(C)=O [EXCAVATOLIDE F] | 6.2 µg/mL (≈ 10.8 µM) | 7 µg/mL (≈ 12.1 µM) | 5.2 µg/mL (≈ 9.02 µM) | 5.5 µg/mL (≈ 9.54 µM) |
| CC(=O)O[C@H]1C[C@H](OC(C)=O)[C@@]2(C)[C@H]([C@H]1C)[C@@H](OC(C)=O)[C@]13O[C@@]1(C)C(=O)O[C@H]3/C=C(/C)CC[C@H]2OC(C)=O [EXCAVATOLIDE G] | 15.7 µg/mL (≈ 28.5 µM) | > 50 µg/mL | 22.8 µg/mL (≈ 41.4 µM) | > 50 µg/mL |
| CCCC(=O)O[C@H]1C[C@H](OC(C)=O)[C@@]2(C)[C@H]([C@H]1C)[C@@H](OC(C)=O)[C@]13O[C@@]1(C)C(=O)O[C@H]3/C=C(/C)C[C@H](OC(=O)CCC)[C@H]2OC(C)=O [EXCAVATOLIDE H] | > 50 µg/mL | > 50 µg/mL | > 50 µg/mL | > 50 µg/mL |
| CCCC(=O)O[C@H]1C/C(C)=C\[C@@H]2OC(=O)[C@]3(C)O[C@]23[C@H](OC(C)=O)[C@H]2[C@@H](C)[C@@H](OC(C)=O)C[C@H](OC(C)=O)[C@]2(C)[C@@H]1OC(C)=O [EXCAVATOLIDE I] | > 50 µg/mL | > 50 µg/mL | > 50 µg/mL | > 50 µg/mL |
| CCCC(=O)O[C@H]1C[C@H](OC(C)=O)[C@@]2(C)[C@H]([C@H]1C)[C@@H](OC(C)=O)[C@]13O[C@@]1(C)C(=O)O[C@H]3/C=C(/C)C[C@H](OC(C)=O)[C@H]2OC(C)=O [EXCAVATOLIDE J] | 3.8 µg/mL (≈ 5.97 µM) | 6.5 µg/mL (≈ 10.2 µM) | 5.2 µg/mL (≈ 8.17 µM) | 5.2 µg/mL (≈ 8.17 µM) |
| CC(=O)O[C@H]1C[C@H](OC(C)=O)[C@@]2(C)[C@H]([C@H]1C)[C@@H](OC(C)=O)[C@]13O[C@@]1(C)C(=O)O[C@H]3/C=C(/C)C[C@H](OC(C)=O)[C@H]2OC(C)=O [EXCAVATOLIDE K] | 0.9 µg/mL (≈ 1.48 µM) | 3.3 µg/mL (≈ 5.42 µM) | 3 µg/mL (≈ 4.93 µM) | 1.3 µg/mL (≈ 2.14 µM) |
| CC(=O)O[C@H]1C/C(C)=C\[C@@H]2OC(=O)[C@]3(C)O[C@]23[C@H](O)[C@H]2[C@@H](C)[C@@H](O)C[C@H](OC(C)=O)[C@]2(C)[C@@H]1O [EXCAVATOLIDE M] | 0.001 µg/mL (≈ 0.00207 µM) | 1 µg/mL (≈ 2.07 µM) | 0.1 µg/mL (≈ 0.207 µM) | 2.2 µg/mL (≈ 4.56 µM) |
